Test results from article PMC4411481, “Cyclic nucleotide binding and structural changes in the isolated GAF domain of Anabaena adenylyl cyclase, CyaB2” (PeerJ, 2015).
Like-named read-outs stand apart in the source and are kept apart here.

Assays:
PDE5 GAFa(F163A) sensor = molecular target: T1, PDE5 GAFa(F163A) sensor (Homo sapiens, UniProt O76074, F205A); experiment: In vitro BRET assay, PDE5 GAFa(F163A) sensor; format: biochemical; settings: cell lysate, 1 mM cNMP, 37 °C 10 min
T1 construct: We used the F163A mutant GAFa domain of PDE5; expressed in transfected cells; host or cells: HEK293T lysate

[1] = molecular target: T2, isolated GAFb domain of CyaB2 (residues Leu 270 to Leu 431, GST fusion) (Nostoc sp. PCC 7120 (Anabaena sp. PCC 7120), UniProt P94182); experiment: Cyclic nucleotide binding assay (3H-cAMP competition), GST-GAFb
T2 sequence (P94182 270-431): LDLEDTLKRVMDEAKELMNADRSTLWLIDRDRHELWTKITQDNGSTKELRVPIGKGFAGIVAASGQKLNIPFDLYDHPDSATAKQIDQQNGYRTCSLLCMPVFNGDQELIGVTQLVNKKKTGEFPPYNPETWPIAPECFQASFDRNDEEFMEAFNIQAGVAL

[2] = test system: I308A mutant GAFb domain of CyaB2; format: binding, Anabaena sp. PCC 7120
[3] = test system: GAFb sensor (GFP2-GAFb-Rluc); experiment: In vitro BRET assay, GAFb sensor; format: biochemical, Anabaena sp. PCC 7120; settings: cell lysate, 1 mM cNMP, 37 °C 10 min
[4] = test system: CyaB1-CyaB2 fusion protein; settings: read-out: EC50, cAMP-mediated activation of a related adenylyl cyclase domain; ref Bruder et al., 2005; cited from earlier work
[5] = test system: tandem GAFab domains of CyaB2 (residues S77 to L431, GST fusion); experiment: biochemical; format: binding, Anabaena sp. PCC 7120; settings: tandem GAFab vs isolated GAFb
[6] = molecular target: T3, tandem GAFab domains of CyaB2 (residues S77 to L431, GST fusion) (Nostoc sp. PCC 7120 (Anabaena sp. PCC 7120), UniProt P94182); experiment: biochemical; format: binding
T3 sequence (P94182 77-431): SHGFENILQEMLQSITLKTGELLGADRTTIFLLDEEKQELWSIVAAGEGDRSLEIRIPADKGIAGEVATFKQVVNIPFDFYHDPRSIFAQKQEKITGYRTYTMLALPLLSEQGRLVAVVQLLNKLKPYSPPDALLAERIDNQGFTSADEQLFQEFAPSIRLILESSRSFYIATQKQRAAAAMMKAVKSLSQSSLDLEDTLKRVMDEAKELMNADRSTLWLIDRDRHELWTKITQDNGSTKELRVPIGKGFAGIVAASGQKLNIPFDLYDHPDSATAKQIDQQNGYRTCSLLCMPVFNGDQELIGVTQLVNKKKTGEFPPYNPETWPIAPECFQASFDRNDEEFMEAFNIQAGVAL

[7] = test system: NterGAFab sensor (GFP2-NterGAFab-Rluc); experiment: In vitro BRET assay, NterGAFab sensor; format: biochemical, Anabaena sp. PCC 7120; settings: cell lysate, 1 mM cNMP
[8] = test system: T293A mutant GAFb domain of CyaB2; experiment: Cyclic nucleotide binding assay, T293A mutant GAFb; parameters: species or system Anabaena sp. PCC 7120
[9] = test system: GAFab sensor (GFP2-GAFab-Rluc); experiment: In vitro BRET assay, GAFab sensor; format: biochemical, Anabaena sp. PCC 7120; settings: cell lysate, 1 mM cNMP
HEK293T cells = experiment: Intracellular cNMP estimation by radioimmunoassay; format: cell-based, Human; settings: 100 µM forskolin, 5 min
Description: Intracellular levels of cyclic nucleotide monophosphates (cNMP) were measured from the cells used for BRET measurements, or […] transfected and treated cells. Cells were lysed in 0.1 N HCl and cNMP was measured by radioimmunoassay as described earlier ([Bakre, […], 2000]).

[10] = test system: HEK293T cells expressing the GAFb sensor; experiment: Cellular BRET assay, GAFb sensor; format: cell-based, Human; settings: 100 µM; forskolin 5 min, SNP 2 min, 37 °C

T1 sequence (O76074 148-315 F205A): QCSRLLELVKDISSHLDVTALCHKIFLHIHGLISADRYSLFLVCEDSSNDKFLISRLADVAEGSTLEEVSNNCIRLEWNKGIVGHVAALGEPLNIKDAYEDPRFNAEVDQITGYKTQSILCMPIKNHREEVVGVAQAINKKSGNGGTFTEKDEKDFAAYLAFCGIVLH

Structure (SMILES) | change in BRET ratio (PDE5 GAFa(F163A) sensor) | Kd [1] [µM] | change in affinity vs wild type GAFb [2] | change in BRET ratio [3] | EC50 [4] [µM] | fold higher affinity than the isolated GAFb domain [5] [fold] | IC50 [6] [µM] | change in BRET [7] | change in affinity vs wild type GAFb [8] | change in BRET [9] | IC50 ([1]; isolated GAFb, ∼1 nM 3H-cAMP) [µM] | fold lower affinity compared to the isolated GAFb domain [5] [fold] | IC50 ([6]; tandem GAFab, ∼1 nM 3H-cAMP, read-out: IC50, competition with 3H-cAMP binding) [µM] | intracellular levels of cAMP (HEK293T cells) | change in BRET ratios in live cells [10]
Nc1ncnc2c1ncn2[C@@H]1O[C@@H]2COP(=O)(O)O[C@H]2[C@H]1O [cAMP, adenosine 3′, 5′—cyclic monophosphate] | large increase in the BRET ratio | 0.8 ± 0.2 | significant reduction in the affinity | no change in the BRET ratio | ~1.3 | 16 | 0.05 ± 0.02 | did not result in a significant alteration | no change in the affinity | did not result in a significant alteration |  |  |  |  | 
Nc1nc2c(ncn2[C@@H]2O[C@@H]3COP(=O)(O)O[C@H]3[C@H]2O)c(=O)[nH]1 [cGMP, guanosine 3′, 5′—cyclic monophosphate] | large increase in the BRET ratio |  | remained unaltered | no change in the BRET ratio |  |  |  | did not result in a significant alteration | reduction in the affinity | did not result in a significant alteration | 7.6 ± 1.9 | 348 | 2650 |  | 
C=C[C@@]1(C)CC(=O)[C@]2(O)[C@@]3(C)[C@@H](O)CCC(C)(C)[C@@H]3[C@H](O)[C@H](OC(C)=O)[C@@]2(C)O1 [forskolin] |  |  |  |  |  |  |  |  |  |  |  |  |  | increased intracellular levels | no significant changes
